From patent US20240254118A1, “PRMT5 INHIBITORS AND USES THEREOF” (Gilead Sciences, Inc., priority 2022, published 2024)

How the values were obtained:
[1] = test system: HCT116 MTAP-deleted cells; assay: Cell viability assay (CellTiter-Glo, 7 days), HCT116 MTAP-deleted; conditions: Homo sapiens, HCT-116, 168 h
[2] = test system: SDMA signal (PRMT5 inhibition) in HCT116 MTAP-deleted cells; assay: Symmetric di-methyl arginine image-based high content screen assay (SDMA assay), HCT116 MTAP-deleted; format: cell-based; conditions: SDMA assay; for EC50: Homo sapiens, HCT-116, 72 h, 3 days of treatment, cell line not given, taken as HCT116 MTAP-deleted, read-out: EC50 (SDMA assay); for EC50 selectivity (SDMA assay): taken as HCT116 WT versus MTAP-deleted
Summary of the method: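 HCT116 MTAP-deleted cells treated with compound until Day 3, then formalin-fixed, permeabilized and immunostained for SDMA, with DAPI nuclear counterstain. Imaged by high-content microscopy; SDMA read-out is mean Alexa 488 intensity per DAPI-defined cell, reflecting PRMT5 inhibition.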

SMILES | CC50 [1] [nM] | EC50 [2] [nM] | EC50 selectivity (SDMA assay) [2]
Cn1ncc2c(N)nc3ccc(C(=O)N(Cc4csc(C(F)(F)F)n4)N4CCCOC4=O)cc3c21 [Example 136, 4-amino-1-methyl-N-(2-oxo-1,3-oxazinan-3-yl)-N-((2-(trifluoromethyl)thiazol-4-yl)methyl)-1H-pyrazolo[4,3-c]quinoline-8-carboxamide] | 100 to 1000 | 1 to 5 | 724
Cn1ncc2c(N)nc3ccc(C(=O)N(Cc4ccc(C(F)(F)F)cn4)N4C(=O)O[C@@H]5CC[C@@H]54)cc3c21 [Example 260, 4-amino-1-methyl-N-((1R,5S)-3-oxo-2-oxa-4-azabicyclo[3.2.0]heptan-4-yl)-N-((5-(trifluoromethyl)pyridin-2-yl)methyl)-1H-pyrazolo[4,3-c]quinoline-8-carboxamide] | < 100 | 1 to 5 | 211
CN(C(=O)C1CC1)N(Cc1ccc(C(F)(F)F)cn1)C(=O)c1ccc2nc(N)c3cn[nH]c3c2c1 [Example 281, 4-amino-N′-(cyclopropanecarbonyl)-N′-methyl-N-((5-(trifluoromethyl)pyridin-2-yl)methyl)-1H-pyrazolo[4,3-c]quinoline-8-carbohydrazide] | < 100 | 1 to 5 | 70
CN1CCN(N(Cc2ccc(C(F)(F)F)cn2)C(=O)c2cc3c(cc2F)nc(N)c2cnn(C)c23)C1=O [Example 134, 4-amino-7-fluoro-1-methyl-N-(3-methyl-2-oxoimidazolidin-1-yl)-N-((5-(trifluoromethyl)pyridin-2-yl)methyl)-1H-pyrazolo[4,3-c]quinoline-8-carboxamide] | < 100 | 1 to 5 | 18
Cn1ncc2c(N)nc3ccc(C(=O)N(Cc4ccc(C(F)(F)F)cc4F)N4CCOCC4=O)cc3c21 [Example 50, 4-amino-N-[[2-fluoro-4-(trifluoromethyl)phenyl]methyl]-1-methyl-N-(3-oxomorpholin-4-yl)pyrazolo[4,3-c]quinoline-8-carboxamide] | < 100 | < 1 | 31
Cn1ncc2c(N)nc3ccc(C(=O)N(Cc4ccc(C(F)(F)F)cc4F)n4ccnc4)cc3c21 [Example 199, 4-amino-N-[[2-fluoro-4-(trifluoromethyl)phenyl]methyl]-N-imidazol-1-yl-1-methyl-pyrazolo[4,3-c]quinoline-8-carboxamide] | < 100 | < 1 | 26
Cn1ncc2c(N)nc3cc(Cl)c(C(=O)N(Cc4ccc(C(F)(F)F)cn4)N4CCCC4=O)cc3c21 [Example 141, 4-amino-7-chloro-1-methyl-N-(2-oxopyrrolidin-1-yl)-N-[[5-(trifluoromethyl)-2-pyridyl]methyl]pyrazolo[4,3-c]quinoline-8-carboxamide] | < 100 | 1 to 5 | 58
Nc1nc2cc(F)c(C(=O)N3CCCN3c3ccc(C(F)(F)F)cn3)cc2c2cscc12 [Example 132, (4-amino-7-fluoro-thieno[3,4-c]quinolin-8-yl)-[2-[5-(trifluoromethyl)-2-pyridyl]pyrazolidin-1-yl]methanone] | > 1000 | > 5 | 3193
CC(=O)N(CC(F)F)N(Cc1ccc(C(F)(F)F)cn1)C(=O)c1ccc2nc(N)c3cnn(C)c3c2c1 [Example 115, N′-acetyl-4-amino-N′-(2,2-difluoroethyl)-1-methyl-N-[[5-(trifluoromethyl)-2-pyridyl]methyl]pyrazolo[4,3-c]quinoline-8-carbohydrazide] | 100 to 1000 | 1 to 5 | 382
CN(C(=O)C1CC1)N(Cc1ccc(C(F)(F)F)cc1F)C(=O)c1ccc2nc(N)c3cnn(C)c3c2c1 [Example 344, 4-amino-N′-(cyclopropanecarbonyl)-N-(2-fluoro-4-(trifluoromethyl)benzyl)-N′,1-dimethyl-1H-pyrazolo[4,3-c]quinoline-8-carbohydrazide] | < 100 | < 1 | 48
CC(=O)N(C)N(Cc1ncc(C(F)(F)F)cc1F)C(=O)c1ccc2nc(N)c3cnn(C)c3c2c1 [Example 271, N′-acetyl-4-amino-N-((3-fluoro-5-(trifluoromethyl)pyridin-2-yl)methyl)-N′,1-dimethyl-1H-pyrazolo[4,3-c]quinoline-8-carbohydrazide] | < 100 | < 1 | 86
CC(=O)N(C)N(Cc1ccc(F)cc1F)C(=O)c1ccc2nc(N)c3cnn(C)c3c2c1 [Example 47, N′-acetyl-4-amino-N-[(2,4-difluorophenyl)methyl]-N′,1-dimethyl-pyrazolo[4,3-c]quinoline-8-carbohydrazide] | < 100 | < 1 | 121
Cn1ncc2c(N)nc3ccc(C(=O)N(Cc4ccc(C(F)(F)F)cn4)N4C[C@H]5C[C@@H]4CO5)cc3c21 [Example 299, 4-amino-N-((1R,4R)-2-oxa-5-azabicyclo[2.2.1]heptan-5-yl)-1-methyl-N-((5-(trifluoromethyl)pyridin-2-yl)methyl)-1H-pyrazolo[4,3-c]quinoline-8-carboxamide] | < 100 | < 1 | 144
CN(C(=O)c1ccnn1C)N(Cc1ccc(C(F)(F)F)cn1)C(=O)c1ccc2nc(N)c3cnn(C)c3c2c1 [Example 175, 4-amino-N′,1-dimethyl-N′-(1-methyl-1H-pyrazole-5-carbonyl)-N-((5-(trifluoromethyl)pyridin-2-yl)methyl)-1H-pyrazolo[4,3-c]quinoline-8-carbohydrazide] | < 100 | 1 to 5 | 19
CN(C(=O)[C@H]1C[C@@H]1F)N(Cc1ccc(C(F)(F)F)cn1)C(=O)c1ccc2nc(N)c3cnn(C)c3c2c1 [Example 255, 4-amino-N′-((1R,2S)-2-fluorocyclopropane-1-carbonyl)-N′,1-dimethyl-N-((5-(trifluoromethyl)pyridin-2-yl)methyl)-1H-pyrazolo[4,3-c]quinoline-8-carbohydrazide] | < 100 | < 1 | 51
CN(C(=O)C1CC1)N(Cc1cccc2c1OC(F)(F)O2)C(=O)c1ccc2nc(N)c3cnn(C)c3c2c1 [Example 302, 4-amino-N′-(cyclopropanecarbonyl)-N-((2,2-difluorobenzo[d][1,3]dioxol-4-yl)methyl)-N′,1-dimethyl-1H-pyrazolo[4,3-c]quinoline-8-carbohydrazide] | < 100 | 1 to 5 | 248
Cn1ncc2c(N)nc3ccc(C(=O)N(NC(=O)C4CC4)C4COc5cc(C(F)(F)F)ccc54)cc3c21 (stereo not drawn) [Example 349, 4-amino-N′-(cyclopropanecarbonyl)-1-methyl-N-(6-(trifluoromethyl)-2,3-dihydrobenzofuran-3-yl)-1H-pyrazolo[4,3-c]quinoline-8-carbohydrazide] | < 100 | < 1 | 13
CN(C(=O)C1CC1)N(Cc1ccc2nc(C(F)(F)F)sc2c1)C(=O)c1ccc2nc(N)c3cnn(C)c3c2c1 [Example 323, 4-amino-N′-(cyclopropanecarbonyl)-N′,1-dimethyl-N-((2-(trifluoromethyl)benzo[d]thiazol-6-yl)methyl)-1H-pyrazolo[4,3-c]quinoline-8-carbohydrazide] | < 100 | 1 to 5 | 44
CC(=O)N(c1ccccc1)N(Cc1ccc(C(F)(F)F)cn1)C(=O)c1ccc2nc(N)c3cnn(C)c3c2c1 [Example 6, N′-acetyl-4-amino-1-methyl-N′-phenyl-N-((5-(trifluoromethyl)pyridin-2-yl)methyl)-1H-pyrazolo[4,3-c]quinoline-8-carbohydrazide] | < 100 | < 1 | 286
Cn1ncc2c(N)nc3cc(F)c(C(=O)N(Cc4ccc(C(F)(F)F)cn4)N4CCC(C)(C)C4=O)cc3c21 [Example 44, 4-amino-N-(3,3-dimethyl-2-oxo-pyrrolidin-1-yl)-7-fluoro-1-methyl-N-[[5-(trifluoromethyl)-2-pyridyl]methyl]pyrazolo[4,3-c]quinoline-8-carboxamide] | < 100 | 1 to 5 | 187
Cn1ncc2c(N)nc3ccc(C(=O)N(Cc4ccc(C(F)(F)F)cn4)N4CC5(CCC5)OC4=O)cc3c21 [Example 17, 4-amino-1-methyl-N-(6-oxo-5-oxa-7-azaspiro[3.4]octan-7-yl)-N-[[5-(trifluoromethyl)-2-pyridyl]methyl]pyrazolo[4,3-c]quinoline-8-carboxamide] | < 100 | < 1 | 502
Nc1nc2ccc(C(=O)N(Cc3ccc(C(F)(F)F)cn3)N3CCCCC3=O)cc2c2[nH]ncc12 [Example 202, 4-amino-N-(2-oxo-1-piperidyl)-N-[[5-(trifluoromethyl)-2-pyridyl]methyl]-1H-pyrazolo[4,3-c]quinoline-8-carboxamide] | < 100 | 1 to 5 | 10
Cc1scnc1C(=O)N(C)N(Cc1ccc(C(F)(F)F)cn1)C(=O)c1ccc2nc(N)c3cnn(C)c3c2c1 [Example 226, N′-(4-amino-1-methyl-1H-pyrazolo[4,3-c]quinoline-8-carbonyl)-N,5-dimethyl-N′-((5-(trifluoromethyl)pyridin-2-yl)methyl)thiazole-4-carbohydrazide] | < 100 | 1 to 5 | 86
